Columns and labels:
[1] = AUC (0 to 24 hrs) in monkey at 0.32 mg/kg, po by cassette assay; assay type: ADME, organism-based, Macaca mulatta; design: time < 24 hr, dose 0.32 mg/kg, route oral; conditions: rhesus monkey, plasma
[2] = AUC (0 to 2 hrs) in Beagle dog at 0.1 mg/kg, po by cassette assay; assay type: ADME, organism-based, Canis lupus familiaris; design: time < 2 hr, dose 0.1 mg/kg, route oral; conditions: plasma
[3] = Terminal half life in Beagle dog at 0.1 mg/kg, iv by cassette assay; assay type: ADME, organism-based, Canis lupus familiaris; design: dose 0.1 mg/kg, route intravenous; conditions: in vivo, read-out: beta t1/2 (converted)
[4] = Bioavailability in monkey at 0.32 mg/kg, po by cassette assay; assay type: ADME, organism-based, Macaca mulatta; conditions: rhesus monkey, in vivo
[5] = Metabolic stability assessed as intrinsic clearance in human liver microsome in presence of NADPH-generating system; assay type: ADME; conditions: liver microsomes
[6] = Volume of distribution at steady state in Beagle dog at 0.1 mg/kg, iv by cassette assay; assay type: ADME, organism-based, Canis lupus familiaris; design: dose 0.1 mg/kg, route intravenous; conditions: in vivo, read-out: Vdss
[7] = biological target: Beta-1 adrenergic receptor (Homo sapiens, UniProt P08588); experiment: Agonist activity at human recombinant beta-1 adrenergic receptor expressed in CHO cells assessed as cAMP accumulation by enzyme immuno assay; assay type: functional, cell-based
Chain of Beta-1 adrenergic receptor (P08588 whole entry): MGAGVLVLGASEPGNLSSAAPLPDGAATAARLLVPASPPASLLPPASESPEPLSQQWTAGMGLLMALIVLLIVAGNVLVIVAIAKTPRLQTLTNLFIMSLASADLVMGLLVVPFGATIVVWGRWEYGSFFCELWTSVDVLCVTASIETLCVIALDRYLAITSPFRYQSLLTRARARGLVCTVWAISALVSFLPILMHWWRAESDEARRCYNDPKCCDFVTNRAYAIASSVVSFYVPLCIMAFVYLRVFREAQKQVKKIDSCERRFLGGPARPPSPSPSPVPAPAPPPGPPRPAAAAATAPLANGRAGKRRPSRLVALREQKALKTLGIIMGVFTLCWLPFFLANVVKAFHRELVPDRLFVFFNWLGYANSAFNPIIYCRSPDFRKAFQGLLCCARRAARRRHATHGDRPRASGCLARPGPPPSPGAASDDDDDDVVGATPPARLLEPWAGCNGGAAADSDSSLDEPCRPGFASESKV

[8] = AUC (0 to 24 hrs) in rat at 1.0 mg/kg, po by cassette assay; assay type: ADME, organism-based; design: time < 24 hr, dose 1 mg/kg, route oral; conditions: plasma
[9] = Cmax in rat at 1.0 mg/kg, po by cassette assay; assay type: ADME, organism-based; design: dose 1 mg/kg, route oral; conditions: in vivo
[10] = Metabolic stability assessed as intrinsic clearance in rat liver microsome in presence of NADPH-generating system; assay type: ADME; conditions: liver microsomes
[11] = Total clearance in dog at 0.1 mg/kg, iv; assay type: ADME, organism-based, Canis lupus familiaris; design: dose 0.1 mg/kg, route intravenous; conditions: in vivo
[12] = AUC (0 to 24 hrs) in dog at 0.1 mg/kg, po; assay type: ADME, organism-based, Canis lupus familiaris; design: time < 24 hr, dose 0.1 mg/kg, route oral; conditions: plasma
[13] = Cmax in dog at 0.1 mg/kg, po; assay type: ADME, organism-based, Canis lupus familiaris; design: dose 0.1 mg/kg, route oral; conditions: in vivo
[14] = AUC (0 to 24 hrs) in Beagle dog at 0.1 mg/kg, iv by cassette assay; assay type: ADME, organism-based, Canis lupus familiaris; design: time < 24 hr, dose 0.1 mg/kg, route intravenous; conditions: plasma
[15] = Total clearance in Beagle dog at 0.1 mg/kg, iv by cassette assay; assay type: ADME, organism-based, Canis lupus familiaris; design: dose 0.1 mg/kg, route intravenous; conditions: in vivo
[16] = Total clearance in monkey at 0.32 mg/kg, iv by cassette assay; assay type: ADME, organism-based, Macaca mulatta; design: dose 0.32 mg/kg, route intravenous; conditions: rhesus monkey, in vivo
[17] = Bioavailability in Beagle dog at 0.1 mg/kg, po by cassette assay; assay type: ADME, organism-based, Canis lupus familiaris; conditions: in vivo
[18] = Protein binding in Beagle dog serum; assay type: ADME, cell-free, Canis lupus familiaris; conditions: read-out: PPB (converted)
[19] = Metabolic stability assessed as intrinsic clearance in dog liver microsome in presence of NADPH-generating system; assay type: ADME, Canis lupus familiaris; conditions: liver microsomes
[20] = organism: Canis familiaris; experiment: cells; conditions: Canis lupus familiaris, 3 h
Description: Inhibition of carbachol-induced increase in intravesical pressure in intraduodenally dosed Beagle dog OAB model for 180 mins

[21] = Bioavailability in dog at 0.1 mg/kg, po; assay type: ADME, organism-based, Canis lupus familiaris; conditions: in vivo
[22] = Total clearance in rat at 1.0 mg/kg, iv by cassette assay; assay type: ADME, organism-based; design: dose 1 mg/kg, route intravenous; conditions: in vivo
[23] = Bioavailability in rat at 1.0 mg/kg, po by cassette assay; assay type: ADME, organism-based; conditions: in vivo
[24] = biological target: Beta-2 adrenergic receptor (Homo sapiens, UniProt P07550); experiment: Agonist activity at human recombinant beta2 adrenergic receptor expressed in CHO cells assessed as cAMP accumulation by enzyme immuno assay; assay type: functional, cell-based
Chain of Beta-2 adrenergic receptor (P07550 whole entry): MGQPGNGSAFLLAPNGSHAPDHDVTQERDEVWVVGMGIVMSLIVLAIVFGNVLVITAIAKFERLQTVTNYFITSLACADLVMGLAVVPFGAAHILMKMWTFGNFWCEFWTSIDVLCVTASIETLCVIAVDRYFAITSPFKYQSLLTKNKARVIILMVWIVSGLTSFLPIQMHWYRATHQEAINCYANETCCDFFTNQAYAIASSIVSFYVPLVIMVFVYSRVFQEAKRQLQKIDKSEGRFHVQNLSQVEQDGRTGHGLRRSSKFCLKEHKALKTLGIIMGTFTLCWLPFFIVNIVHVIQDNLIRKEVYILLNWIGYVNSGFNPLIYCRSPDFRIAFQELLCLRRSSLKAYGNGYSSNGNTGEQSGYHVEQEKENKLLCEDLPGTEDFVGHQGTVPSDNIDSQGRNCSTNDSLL

[25] = Metabolic stability assessed as intrinsic clearance in monkey liver microsome in presence of NADPH-generating system; assay type: ADME, Macaca mulatta; conditions: rhesus monkey, liver microsomes
[26] = Terminal half life in dog at 0.1 mg/kg, iv; assay type: ADME, organism-based, Canis lupus familiaris; design: dose 0.1 mg/kg, route intravenous; conditions: in vivo, read-out: beta t1/2 (converted)
[27] = biological target: Beta-3 adrenergic receptor (Homo sapiens, UniProt P13945); experiment: Agonist activity at human recombinant beta3 adrenergic receptor expressed in CHO cells assessed as cAMP accumulation by enzyme immuno assay; assay type: functional, cell-based
Chain of Beta-3 adrenergic receptor (Homo sapiens, UniProt P13945) (P13945 whole entry): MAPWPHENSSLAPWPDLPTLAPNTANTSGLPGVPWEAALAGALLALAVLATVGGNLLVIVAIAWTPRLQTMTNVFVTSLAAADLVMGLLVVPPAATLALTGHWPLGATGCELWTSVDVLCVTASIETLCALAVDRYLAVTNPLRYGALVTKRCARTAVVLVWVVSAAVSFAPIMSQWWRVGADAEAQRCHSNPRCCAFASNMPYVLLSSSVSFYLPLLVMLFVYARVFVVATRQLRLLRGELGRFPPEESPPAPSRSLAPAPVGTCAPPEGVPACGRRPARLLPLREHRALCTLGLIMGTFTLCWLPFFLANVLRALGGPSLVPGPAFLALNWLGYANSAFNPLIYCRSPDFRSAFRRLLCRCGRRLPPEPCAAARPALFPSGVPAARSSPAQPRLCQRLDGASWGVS

[28] = biological target: Beta-3 adrenergic receptor (Canis lupus familiaris, UniProt O02662); experiment: Agonist activity at dog recombinant beta3 adrenergic receptor expressed in CHO cells assessed as cAMP accumulation by enzyme immuno assay; assay type: functional, cell-based
Chain of Beta-3 adrenergic receptor (Canis lupus familiaris, UniProt O02662) (O02662 whole entry): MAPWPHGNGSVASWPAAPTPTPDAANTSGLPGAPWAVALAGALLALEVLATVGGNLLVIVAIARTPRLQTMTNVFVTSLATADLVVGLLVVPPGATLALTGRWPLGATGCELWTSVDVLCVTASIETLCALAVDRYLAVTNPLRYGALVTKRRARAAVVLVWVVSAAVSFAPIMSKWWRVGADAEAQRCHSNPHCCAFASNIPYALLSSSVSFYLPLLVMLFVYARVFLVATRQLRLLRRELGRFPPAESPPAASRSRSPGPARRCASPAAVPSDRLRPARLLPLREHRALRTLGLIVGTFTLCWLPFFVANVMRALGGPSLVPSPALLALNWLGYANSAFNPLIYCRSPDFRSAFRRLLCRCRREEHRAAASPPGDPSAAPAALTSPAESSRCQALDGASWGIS

[29] = Terminal half life in rat plasma at 0.26 mg/kg, iv by cassette assay; assay type: ADME, organism-based; design: dose 0.26 mg/kg, route intravenous; conditions: read-out: beta t1/2 (converted)
[30] = Cmax in rat at 0.26 mg/kg, po by cassette assay; assay type: ADME, organism-based; design: dose 0.26 mg/kg, route oral; conditions: in vivo
[31] = Terminal half life in monkey plasma at 0.28 mg/kg, iv by cassette assay; assay type: ADME, organism-based, Macaca mulatta; design: dose 0.28 mg/kg, route intravenous; conditions: rhesus monkey, read-out: beta t1/2 (converted)
[32] = AUC (0 to 24 hrs) in rat at 0.26 mg/kg, po by cassette assay; assay type: ADME, organism-based; design: time < 24 hr, dose 0.26 mg/kg, route oral; conditions: plasma
[33] = AUC (0 to 24 hrs) in dog at 0.32 mg/kg, po; assay type: ADME, organism-based, Canis lupus familiaris; design: time < 24 hr, dose 0.32 mg/kg, route oral; conditions: plasma
[34] = Bioavailability in rat at 0.26 mg/kg, po by cassette assay; assay type: ADME, organism-based; conditions: in vivo
[35] = Total clearance in monkey at 0.28 mg/kg, iv by cassette assay; assay type: ADME, organism-based, Macaca mulatta; design: dose 0.28 mg/kg, route intravenous; conditions: rhesus monkey, in vivo
[36] = Bioavailability in monkey at 0.28 mg/kg, po by cassette assay; assay type: ADME, organism-based, Macaca mulatta; conditions: rhesus monkey, in vivo
[37] = Bioavailability in dog at 0.32 mg/kg, po; assay type: ADME, organism-based, Canis lupus familiaris; conditions: in vivo
[38] = Total clearance in dog at 0.32 mg/kg, iv; assay type: ADME, organism-based, Canis lupus familiaris; design: dose 0.32 mg/kg, route intravenous; conditions: in vivo
[39] = Total clearance in rat at 0.26 mg/kg, iv by cassette assay; assay type: ADME, organism-based; design: dose 0.26 mg/kg, route intravenous; conditions: in vivo
[40] = Cmax in monkey at 0.28 mg/kg, po by cassette assay; assay type: ADME, organism-based, Macaca mulatta; design: dose 0.28 mg/kg, route oral; conditions: rhesus monkey, in vivo
[41] = AUC (0 to 24 hrs) in monkey at 0.28 mg/kg, po by cassette assay; assay type: ADME, organism-based, Macaca mulatta; design: time < 24 hr, dose 0.28 mg/kg, route oral; conditions: rhesus monkey, plasma
[42] = Cmax in dog at 0.32 mg/kg, po; assay type: ADME, organism-based, Canis lupus familiaris; design: dose 0.32 mg/kg, route oral; conditions: in vivo
[43] = Cmax in monkey at 0.32 mg/kg, po by cassette assay; assay type: ADME, organism-based, Macaca mulatta; design: dose 0.32 mg/kg, route oral; conditions: rhesus monkey, in vivo
[44] = tested on: Rattus norvegicus; experiment: Terminal half life in rat at 0.34 mg/kg, iv by cassette assay; assay type: ADME, organism-based; design: dose 0.34 mg/kg, route intravenous; conditions: in vivo
[45] = Total clearance in rat at 0.34 mg/kg, iv by cassette assay; assay type: ADME, organism-based; design: dose 0.34 mg/kg, route intravenous; conditions: in vivo
[46] = tested on: Rattus norvegicus; experiment: Bioavailability in rat at 0.34 mg/kg, po by cassette assay; assay type: ADME, organism-based; conditions: in vivo
[47] = Terminal half life in monkey plasma at 0.32 mg/kg, iv by cassette assay; assay type: ADME, organism-based, Macaca mulatta; design: dose 0.32 mg/kg, route intravenous; conditions: rhesus monkey, read-out: beta t1/2 (converted)
[48] = AUC (0 to 24 hrs) in rat at 0.34 mg/kg, po by cassette assay; assay type: ADME, organism-based; design: time < 24 hr, dose 0.34 mg/kg, route oral; conditions: plasma
[49] = Cmax in rat at 0.34 mg/kg, po by cassette assay; assay type: ADME, organism-based; design: dose 0.34 mg/kg, route oral; conditions: in vivo

| EC50 [7] [nM] | fraction unbound [18] | EC50 [24] [nM] | EC50 [27] [nM] | EC50 [28] [nM] | SMILES | AUC(0-t) at 24 h [1] [ng·h/mL] | bioavailability [4] [%] | clearance [11] [mL/min/kg] | AUC(0-t) at 24 h [12] [ng·h/mL] | Cmax [13] [ng/mL] | clearance [16] [mL/min/kg] | EC50 [20] [nM] | ED50 [20] [mg/kg] | bioavailability [21] [%] | half-life [26] [h] | also measured |
| --- | --- | --- | --- | --- | --- | --- | --- | --- | --- | --- | --- | --- | --- | --- | --- | --- |
| 480 | 0.1 | > 10000 | 0.26 | 1.3 | O=C(O)c1ccc(-c2ccc(CCNC[C@H](O)c3cccnc3)cc2)cc1OC1CCCCC1 |  |  |  |  |  |  |  |  |  |  | half-life [29]: 3.3 h; Cmax [30]: 72.4 ng/mL; half-life [31]: 10.3 h; AUC(0-t) at 24 h [32]: 245 ng·h/mL; AUC(0-t) at 24 h [33]: 58.1 ng·h/mL; bioavailability [34]: 82.5%; clearance [35]: 3.4 mL/min/kg; bioavailability [36]: 10.7%; bioavailability [37]: 60%; clearance [38]: 47.7 mL/min/kg; clearance [39]: 15.8 mL/min/kg; Cmax [40]: 18.6 ng/mL; AUC(0-t) at 24 h [41]: 153 ng·h/mL; Cmax [42]: 11.4 ng/mL |
| 780 | 0.14 | > 10000 | 0.81 | 3.7 | CC(C)Oc1cc(-c2ccc(CCN[C@@H](C)[C@H](O)c3ccccc3)cc2)ccc1C(=O)O | 1800 | 88.2 | 7.3 | 134 | 7.4 | 2.5 | 9.5 | 0.02 | 63.9 | 14.3 | Cmax [43]: 178 ng/mL; beta t1/2 [44]: 8.2 h; clearance [45]: 6.8 mL/min/kg; bioavailability [46]: 100%; half-life [47]: 29 h; AUC(0-t) at 24 h [48]: 880 ng·h/mL; Cmax [49]: 125 ng/mL |

| SMILES | EC50 [7] [nM] | fraction unbound [18] | EC50 [24] [nM] | EC50 [27] [nM] | EC50 [28] [nM] | AUC(0-t) at 24 h [1] [ng·h/mL] | bioavailability [4] [%] | clearance [11] [mL/min/kg] | AUC(0-t) at 24 h [12] [ng·h/mL] | Cmax [13] [ng/mL] | clearance [16] [mL/min/kg] | EC50 [20] [nM] | ED50 [20] [mg/kg] | bioavailability [21] [%] | half-life [26] [h] | also measured |
| --- | --- | --- | --- | --- | --- | --- | --- | --- | --- | --- | --- | --- | --- | --- | --- | --- |
| CC(C)Oc1cc(-c2ccc(C[C@@H](C)NC[C@H](O)c3ccccc3)cc2)ccc1C(=O)O | 86 | 0.14 | > 10000 | 0.091 | 0.19 | 1300 | 52.8 | 7.83 | 162 | 8.5 | 1.8 | 2.5 | 0.0035 | 79.6 | 14.3 | AUC(0-t) at 2 h [2]: 106 ng·h/mL; half-life [3]: 15.5 h; CLint scaled [5]: < 0.1 mL/min/kg; Vd [6]: 5.4 L/kg; AUC(0-t) at 24 h [8]: 1640 ng·h/mL; Cmax [9]: 116 ng/mL; CLint scaled [10]: < 0.1 mL/min/kg; AUC(0-t) at 24 h [14]: 260 ng·h/mL; clearance [15]: 6.5 mL/min/kg; bioavailability [17]: 41%; CLint scaled [19]: < 0.1 mL/min/kg; clearance [22]: 7.2 mL/min/kg; bioavailability [23]: 69.7%; CLint scaled [25]: < 1 mL/min/kg |
